# Assays:
# [1] = species: Rattus norvegicus; test: Selectivity index, ratio of IC50 for rat kidney ALR1 to IC50 for rat eye lens ALR2
# [2] = Inhibition of rat eye lens ALR2 using DL-glyceraldehyde by measuring NADPH consumption by spectrophotometric analysis; format: tissue-based
# [3] = target: Aldo-keto reductase family 1 member A1 (Rattus norvegicus, UniProt P51635); test: Inhibition of rat kidney ALR1 using D-glucuronate by measuring NADPH consumption by spectrophotometric analysis; format: tissue-based
# Chain of Aldo-keto reductase family 1 member A1 (P51635 whole entry, looked up): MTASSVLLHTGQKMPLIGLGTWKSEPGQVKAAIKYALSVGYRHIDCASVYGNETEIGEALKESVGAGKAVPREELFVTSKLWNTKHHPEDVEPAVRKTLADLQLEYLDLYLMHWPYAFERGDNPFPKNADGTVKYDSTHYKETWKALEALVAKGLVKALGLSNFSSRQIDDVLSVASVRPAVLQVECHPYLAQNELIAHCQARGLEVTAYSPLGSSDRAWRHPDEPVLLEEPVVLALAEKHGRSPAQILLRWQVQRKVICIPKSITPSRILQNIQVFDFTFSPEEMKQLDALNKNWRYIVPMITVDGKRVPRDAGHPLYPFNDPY
# [4] = target: Aldo-keto reductase family 1 member B1 (Homo sapiens, UniProt P15121); test: Inhibition of ALR2 (unknown origin)
Ratio IC50 [1],IC50 [2] [nM],pIC50 [2],IC50 [3] [nM],IC50 [4] [nM],SMILES
24,892,6.05,21100,–,O=C1/C(=C/c2ccc(O)cc2)SC(=S)N1/N=C/c1ccccc1
12,53,7.28,635,–,Cc1ccccc1/C=N/N1C(=O)/C(=C/c2ccc(O)cc2)SC1=S
> 11,2150,5.67,> 25000,–,COc1ccc(/C=N/N2C(=O)/C(=C/c3ccc(O)cc3)SC2=S)cc1
8,27,7.57,228,–,O=C1/C(=C/c2ccc(O)cc2)SC(=S)N1/N=C/c1ccc(F)cc1
5,22,7.66,116,–,O=C1/C(=C/c2ccc(O)cc2)SC(=S)N1/N=C/c1ccc(O)cc1
–,–,–,–,950,O=C(CN1C(=O)S/C(=C\c2ccc(O)cc2)C1=O)Nc1ccccc1O
12,149,6.83,1760,–,O=C1/C(=C/c2ccc(O)cc2)SC(=S)N1/N=C/c1ccccc1Cl

# The remaining lines, values behind:
SMILES,Ratio IC50 [1],IC50 [2] [nM],pIC50 [2],IC50 [3] [nM],IC50 [4] [nM]
CC(/C=C1\SC(=S)N(CC(=O)O)C1=O)=C\c1ccccc1 [EPALRESTAT],–,250,6.6,–,–
O=C(CN1C(=O)S/C(=C\c2ccc(O)cc2)C1=O)NO,–,–,–,–,1790
COc1ccc2nc(/N=C3\NC(=O)/C(=C/c4ccc(O)cc4)S3)sc2c1,–,–,–,–,1300
O=C1S/C(=C\c2ccc(O)cc2)C(=O)N1CC(=O)C(F)(F)F,–,–,–,–,3000
COC(=O)CN1C(=O)S/C(=C\c2ccc(O)cc2)C1=O,–,–,–,–,6180

# Reference: ChEMBL document CHEMBL5352451, “Novel rhodanine based inhibitors of aldose reductase of non-acidic nature with p-hydroxybenzylidene functional group” (Eur J Med Chem, 2023)
